Measurements as given in patent US10258610B2, “Pharmaceutical compositions comprising rifaximin, processes for their preparation and their use in the treatment of vaginal infections” (ALFASIGMA S.P.A., priority 2011, dated 2019).

System: vaginal microbiota
Assay: Vaginal microbiota by PCR-DGGE (cluster analysis, Similarity Index, Richness Index)
Format: in vivo, human
Design: key to Similarity Index V1-V3 / Similarity Index V1-V4 / Similarity Index V3-V4 / Similarity Index V1-V3-V4: % similarity between DGGE profiles (Pearson correlation)
Description: During the clinical trial samples of vaginal rinses were taken, and the composition of vaginal microbiota was determined by means of the PCR-DGGE technique, allowing the identification of various bacterial DNA through an electrophoretic process and a DNA amplification with universal primers for the bacterial 16S rRNA region. The result of this technique was a sequence of visible bands, called clusters, wherein each of them is representative for the DNA of bacterial species present in the considered sample. The analysis of clusters of DGGE profiles of samples, carried out by using the FPQuest software (Bio-Rad) gives the information relating to the similarity of two samples. In the specific case wherein the recovery is intended as reduction of pathogenic species, it is positive that the sample of a patient after treatment is quite different from the sample of the same patient before treatment. The analysis was carried out with vaginal samples at the visits V1, V3 and V4 for the four groups A, B, C and D of treated patients. In order to evaluate the pharmacological action of the examined rifaximin preparations, different treatment groups were compared through the so called Similarity Indexes (SI). The analysis consists in evaluating the similarity of electrophoretic profiles calculated on the basis of the Pearson correlation coefficient. In the examined case, SI indicates the percent similarity between two or more DGGE profiles belonging to the same person at the different visits. Another adopted criterion of evaluation of the samples is the so called Richness Index (RI). This criterion, based on the bands of each DGGE profile, gives the measure of the complexity of the bacterial population, which is a sign of disease for the occurrence of new pathogenic species. Table 32 reports the RI average values, measured at the visits V1 and V3.

[1] = Group A: 1 tablet 100 mg × 5 days
[2] = Group B: 1 tablet 25 mg × 5 days
[3] = Group C: 1 tablet 100 mg × 2 days

## CO[C@H]1/C=C/O[C@@]2(C)Oc3c(C)c(O)c4c(O)c(c5c(nc6cc(C)ccn65)c4c3C2=O)NC(=O)/C(C)=C\C=C\[C@H](C)[C@H](O)[C@@H](C)[C@@H](O)[C@@H](C)[C@H](OC(C)=O)[C@@H]1C [Rifaximin]
[1]
  Percent of patients with clusterizing profiles, V1 vs. V3: 37%
  Percent of patients with clusterizing profiles, V1 vs. V3 vs. V4: 0%
  Similarity Index V1-V3: 61.6
  Similarity Index V1-V3-V4: 50.8
  Similarity Index V1-V4: 52.1
  Similarity Index V3-V4: 66.8
[2]
  Percent of patients with clusterizing profiles, V1 vs. V3: 24%
  Percent of patients with clusterizing profiles, V1 vs. V3 vs. V4: 0%
  Similarity Index V1-V3: 48.4
  Similarity Index V1-V3-V4: 36.4
  Similarity Index V1-V4: 40.0
  Similarity Index V3-V4: 62.1
[3]
  Percent of patients with clusterizing profiles, V1 vs. V3: 28%
  Percent of patients with clusterizing profiles, V1 vs. V3 vs. V4: 11%
  Similarity Index V1-V3: 54.0
  Similarity Index V1-V3-V4: 37.6
  Similarity Index V1-V4: 47.1
  Similarity Index V3-V4: 42.8
Visit V1 (before therapy), Group A: 1 tablet 100 mg × 5 days
  Richness Index: 13.5
Visit V1 (before therapy), Group B: 1 tablet 25 mg × 5 days
  Richness Index: 14.0
Visit V1 (before therapy), Group C: 1 tablet 100 mg × 2 days
  Richness Index: 15.4
Visit V3, Group A: 1 tablet 100 mg × 5 days
  Richness Index: 10.9
Visit V3, Group B: 1 tablet 25 mg × 5 days
  Richness Index: 10.7
Visit V3, Group C: 1 tablet 100 mg × 2 days
  Richness Index: 12.2
